Source: PubChem BioAssay (NCI)
Several values for one entry are separate records, joined by “and”; a condition that tells them apart may be missing. Equal entries are not always repeated.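 Growth conditions: 96-well plates. Treatment: test compound, 48 hours, 5 concentrations. Analysis: linear interpolation between bracketing concentrations; unreached endpoints set to highest concentration. At the GI50, growth is halved. The concentration for full growth arrest is given as TGI.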

Key:
Assay in all cases: NCI anticancer screen, dose series, 48 h
[1] = system: 786-0 renal
[2] = system: A498 renal
[3] = system: CAKI-1 renal
[4] = system: CCRF-CEM leukemia
[5] = system: SF-295 CNS
[6] = system: SF-539 CNS
[7] = system: SK-OV-3 ovarian
[8] = system: SNB-75 CNS
[9] = system: U251 CNS
[10] = system: MDA-MB-231 breast

Structure (SMILES) | TGI [1] [µM] | TGI [2] [µM] | TGI [3] [µM] | TGI [4] | TGI [5] [µM] | TGI [6] [µM] | TGI [7] [µM] | TGI [8] [µM] | TGI [9] [µM] | GI50 [1] [µM] | GI50 [2] [µM] | GI50 [3] [µM] | GI50 [4] | GI50 [10] [µM] | TGI [10] [µM] | GI50 [6] [nM] | GI50 [9] [µM] | GI50 [5] [µM] | GI50 [7] [µM] | GI50 [8] [µM]
C=CCNC(=O)N(CCCCC(NC(C)=O)C(=O)NCc1ccccc1)Cc1ccccc1 (stereo unspecified) | > 100 | > 100 | > 100 | > 100 µM | > 100 | > 100 | > 100 | > 100 | > 100 | – | – | – | – | – | – | – | – | – | – | –
COC(=O)CC1C[C@H](C#N)N(C(=O)c2ccccc2)C[C@@H]1CC[N+](=O)[O-] (stereo partly specified) | > 100 | > 100 | – | > 100 µM | > 100 | > 100 | > 100 | > 100 | > 100 | – | – | – | – | – | – | – | – | – | – | –
COc1ccc(/C=C/C(=O)c2cc(OC)c(OC)c(OC)c2)cc1OCc1cn(Cc2ccc(F)cc2)nn1 | > 100 | 56.2 | > 100 | 8.66 µM | – | 7.83 | – | – | 19.4 | 4.44 | 12.2 | 4.79 | 2.14 µM | 2.84 | > 100 | 2490 | 2.94 | – | – | –
C=C1C(=O)O[C@H]2[C@H]1CC/C(COC(=O)CSCSCC(=O)OC/C1=C/CC[C@@]3(C)O[C@H]3[C@H]3OC(=O)C(=C)[C@@H]3CC1)=C\CC[C@@]1(C)O[C@@H]21 | 2.89 | 14.8 | 3.32 | 1.47 µM | 4.46 | 2.89 | 16.5 | – | 3.85 | 1.41 | 3.83 | 1.74 | 0.304 µM | 1.39 | 3 | 1470 | 1.7 | 1.85 | 5.1 | –
O=C(O)C1=C(O)C(C(=O)O)C23CCCCCCCCCCC12C(C(=O)O)C(O)=C3C(=O)O (stereo unspecified) | > 100 | – | – | > 100 µM | > 100 | > 100 | > 100 | – | > 100 | – | – | – | – | – | – | – | – | – | – | –
CCOC(=O)/C(C=Nc1ccc(-c2nc3ccccc3[nH]2)cc1)=C(/C)O | 23.5 | – | > 50 | – | > 50 | – | > 50 | – | 15.6 | 11 | – | 17.6 | – | 9.65 | 31.3 | – | 8.74 | 16.4 | 22.2 | –
Cc1nnn[n-]1.N.N.N.N.N.[Cl-].[Co+3] | > 100 | 72 | – | > 100 µM | > 100 | > 100 | > 100 | > 100 | > 100 | > 100 | 4.14 | – | > 100 µM | – | – | > 100000 | > 100 | > 100 | > 100 | > 100
NS(=O)(=O)c1ccc(-n2nc(-c3ccc(Cl)cc3)cc2-c2cc(O)ccc2O)cc1 | 16.7 | – | 22.8 | 66.6 µM | 33.5 | 46.7 | – | – | – | 5.18 | – | 7.9 | 3.14 µM | 3.32 | 13.9 | 25400 | – | 17.6 | – | –
CN(O)C(=O)SCC(NC(=O)CCC(N)C(=O)O)C(=O)NCC(=O)O (stereo unspecified) | > 2000 | > 2000 | > 2000 | > 2 µM and 649 µM and 1240 µM | > 2 | > 2 | > 2000 | > 2000 | – | > 2000 | > 2000 | > 2000 | 198 µM and 520 µM | – | – | – | > 2000 | – | > 2000 | > 2000
CCOC(=O)C12CCCC1(O)N(NC(=O)OC(C)(C)C)C(C)=C2C(=O)OC (stereo unspecified) | > 100 | > 100 | > 100 | > 100 µM | > 100 | > 100 | > 100 | – | > 100 | – | – | – | – | – | – | – | – | – | – | –
COC1=C(N)C(=O)c2nc(C)ccc2C1=O | 3.94 | 3.57 | 22.4 | > 87.7 µM | 3.18 | 3.35 | 38.4 | 3.74 | 5.69 | – | – | – | – | – | – | – | – | – | – | –
CC1(C)O[C@H]2[C@H](O)C[C@](O)(CO)C[C@H]2O1 | > 100 | – | > 100 | – | > 100 | > 100 | > 100 | > 100 | > 100 | – | – | – | – | – | – | – | – | – | – | –
O=[N+]([O-])c1ccc(C[P+](c2ccccc2)(c2ccccc2)c2ccccc2)cc1 | > 100 | > 100 | – | > 100 µM | > 100 | > 100 | > 100 | > 100 | > 100 | – | – | – | – | – | – | – | – | – | – | –
O=C(COc1ccc(Cl)cc1)N1N=C(c2ccc(Cl)cc2)CC1(O)c1ccccc1 (stereo unspecified) | 28.3 | 26.5 | > 100 | > 100 µM | 82 | > 59.4 | > 63.6 | > 72.7 | 38.3 | – | – | – | – | – | – | – | – | – | – | –
O/N=C1/C(=C/c2ccc3c(c2)OCO3)CCCC1C(NO)c1ccc2c(c1)OCO2 (stereo unspecified) | 96.3 | 79 | 94.6 | 53 µM | – | 32.4 | 94 | 80.1 | 45.1 | – | – | – | – | – | – | – | – | – | – | –
COC(=O)NC(=O)c1cn(C2OC(CO)C(O)C2O)c(=O)[nH]c1=O (stereo unspecified) | > 100 | – | > 100 | – | > 100 | > 100 | > 100 | > 100 | > 100 | – | – | – | – | – | – | – | – | – | – | –
Cc1cc(CC(=O)NCCO)n(CCO)c(=O)c1 | > 100 | – | > 100 | > 100 µM | > 100 | > 100 | – | > 100 | > 100 | – | – | – | – | – | – | – | – | – | – | –
CC1=C(C(=O)Nc2cc(=O)n(C)c(=O)n2C)C(c2ccco2)C(C(=O)Nc2cc(=O)n(C)c(=O)n2C)=C(C)N1 | > 100 | > 100 | > 100 | > 100 µM | > 100 | > 100 | – | > 100 | > 100 | – | – | – | – | – | – | – | – | – | – | –
Cc1c2ccncc2c(C)c2c1[nH]c1ccc(OC(C)C)cc12 | 2.44 | 2.78 | 2.96 | 7.68 µM | 2.73 | 3.36 | 2.77 | 3.36 | 2.94 | – | – | – | – | – | – | – | – | – | – | –
Cc1cccc(/C=C/c2c(C(=O)/C=C/c3ccccc3)c(C)nc3ccccc23)c1 | 3.11 | 3.26 | 2.59 | > 100 µM | 3.73 | 3.12 | – | 2.95 | 2.85 | 1.62 | 1.77 | 1.29 | 1.33 µM | – | – | 1710 | 1.47 | 1.89 | – | 1.42
